# Patent US20230346670A1, “Prebiotic Oral Care Compositions and Methods” (Colgate-Palmolive Company, priority 2020, published 2023)
# Marks after values point to notes of the source that are not given here.
# Experiments:
# Assay type in all cases: cell-based
# [1] = test system: S. oralis; test: Multi-species biofilm composition, absolute abundance (Geq/mL); conditions: for absolute abundance of S. oralis, mean ± SD log (Geq/mL): repeated rinsing
# Outline: (§1)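 CAD-HA disks, Amsterdam Active Adhesion model; biofilms established 24 h (37° C., 170 rpm, microaerophilic: 6% O2, 7% CO2, 7% H2, 80% N2). Then rinsed 3×/day, 3 min (RT, 250 rpm), 3 days, with substrate at 1 M; PBS (pH 5.7) without substrate as control. Values mean ± SD (n = 3) log(Geq/mL).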
# [2] = test system: A. naeslundii; test: as above; conditions: repeated rinsing
# Outline: as §1
# [3] = test system: S. sobrinus; test: as above; conditions: repeated rinsing
# Outline: as §1
# [4] = test system: P. gingivalis; test: as above; conditions: repeated rinsing
# Outline: as §1
# [5] = test system: S. mitis; test: as above; conditions: repeated rinsing
# [6] = test system: S. gordonii; test: as above; conditions: repeated rinsing
# Outline: as §1
# [7] = test system: F. nucleatum virulence genes; test: Virulence gene expression in multi-species biofilm (SYBR RT-qPCR); conditions: relative to control = 1, 2^-ΔΔCt, n = 3
# Outline: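 Multi-species biofilms on CAD-HA disks (Amsterdam Active Adhesion model) established 24 h at 37° C. under microaerophilic conditions, then rinsed 3 min three times daily for 3 days with substrate (1 M or 1% (w/v) in PBS); PBS pH 5.7 control. 33 virulence genes from 4 periodontal pathogens quantified by SYBR RT-qPCR, housekeeping-normalized; fold change by 2^-ΔΔCt, geometric mean (n = 3).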
# [8] = test system: P. gingivalis virulence genes; test: as above; conditions: relative to control, 2^-ΔΔCt, n = 3
# Outline: (§2)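 Multi-species biofilms on hydroxyapatite disks were grown 24 h under microaerophilic conditions at 37 °C, then rinsed three times daily for 3 min over 3 days with substrate in PBS at 1 M or 1% (w/v); PBS pH 5.7 served as control. Virulence gene expression was measured by SYBR RT-qPCR normalized to housekeeping genes, giving 2^-ΔΔCt fold change versus control as geometric mean (n = 3).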
# [9] = test system: A. actinomycetemcomitans virulence genes; test: as above
# Outline: as §2
# [10] = test system: multi-species biofilm (beneficial/commensal species, periodontal pathogens, cariogenic pathogens); test: Multi-species biofilm composition, relative proportions and group changes
# Outline: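 Multi-species biofilms grown 24 h on calcium-deficient hydroxyapatite disks in the Amsterdam Active Adhesion model. Then rinsed 3 times daily for 3 min (RT, 250 rpm) over 3 days with 1 M NADG, α-D-lactose, D-(+)-trehalose or D-(+)-raffinose; PBS pH 5.7 without substrate as control. Species abundance given as mean ± SD (n = 3) log genome equivalents per mL.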
# [11] = lower part of Table 6a, substrate 1%(w/v), relative to control = 1
# [12] = substrate 1 M, relative to control = 1, 2^-ΔΔCt, n = 3
# [13] = Table 1a, substrate 1 M, listed as D-(+)-raffinose
# [14] = Table 3, separate experiments, concentration not given
compound,measurement,setting,value
"OC[C@H]1O[C@H](OC[C@H]2O[C@H](O[C@]3(CO)O[C@H](CO)[C@@H](O)[C@@H]3O)[C@H](O)[C@@H](O)[C@@H]2O)[C@H](O)[C@@H](O)[C@H]1O [D-raffinose, D-(+)-raffinose]",decrease in S. oralis numbers in comparison to the control,[1]; substrate 1% (w/v),~ 0.9 log(Geq/mL)
same,"absolute abundance of S. oralis, mean ± SD log (Geq/mL)",[1]; substrate 1% (w/v),5.98 ± 0.18^∗ log (Geq/mL)
same,"absolute abundance of S. oralis, mean ± SD log (Geq/mL)","[1]; substrate 1 M in PBS, n = 3",8.52 ± 0.17^∗ log (Geq/mL)
same,"absolute abundance of A. naeslundii (An), mean ± SD log (Geq/mL)",[2]; substrate 1% (w/v),7.62 ± 0.08 log (Geq/mL)
same,"absolute abundance of A. naeslundii (An), mean ± SD log (Geq/mL)","[2]; substrate 1 M in PBS, n = 3",5.32 ± 0.25^∗ log (Geq/mL)
same,"absolute abundance of S. sobrinus, mean ± SD log (Geq/mL)",[3]; substrate 1% (w/v),5.36 ± 0.20 log (Geq/mL)
same,"absolute abundance of S. sobrinus, mean ± SD log (Geq/mL)","[3]; substrate 1 M in PBS, n = 3",7.06 ± 0.15 log (Geq/mL)
same,"absolute abundance of P. gingivalis (Pg), mean ± SD log (Geq/mL)",[4]; substrate 1% (w/v),6.94 ± 0.21 log (Geq/mL)
same,"absolute abundance of P. gingivalis (Pg), mean ± SD log (Geq/mL)","[4]; substrate 1 M in PBS, n = 3",4.59 ± 0.45^∗ log (Geq/mL)
same,"absolute abundance of S. mitis, mean ± SD log (Geq/mL)",[5]; substrate 1% (w/v),2.65 ± 0.00 log (Geq/mL)
same,"absolute abundance of S. mitis, mean ± SD log (Geq/mL)","[5]; substrate 1 M in PBS, n = 3",3.58 ± 1.31 log (Geq/mL)
same,"absolute abundance of S. gordonii, mean ± SD log (Geq/mL)",[6]; substrate 1% (w/v),8.12 ± 0.06 log (Geq/mL)
same,"absolute abundance of S. gordonii, mean ± SD log (Geq/mL)","[6]; substrate 1 M in PBS, n = 3",8.93 ± 0.31 log (Geq/mL)
same,"fold change in ABC transp. perm. (ABC transporter permease) expression, geometric mean (95% C.I.)",[7]; substrate 1% (w/v),0.17 (0.04-0.65)^∗ fold
same,"fold change in EF-G expression, geometric mean (95% C.I.)",[7]; substrate 1% (w/v),0.12 (0.04-0.33)^∗ fold
same,"fold change in but. -coA transf. (butyrate-acetoacetate CoA-transferase) expression, geometric mean (95% C.I.)",[7]; substrate 1% (w/v),0.47 (0.06-3.98) fold
same,"fold change in hemin receptor expression, geometric mean (95% C.I.)",[7]; substrate 1% (w/v),0.12 (0.09-0.15)^∗ fold
same,"fold change in hemolysin expression, geometric mean (95% C.I.)",[7]; substrate 1% (w/v),0.51 (0.16-1.62)^∗ fold
same,"fold change in ompA expression, geometric mean (95% C.I.)",[7]; substrate 1% (w/v),0.70 (0.20-2.44) fold
same,"fold change in transposase expression, geometric mean (95% C.I.)",[7]; substrate 1% (w/v),0.78 (0.40-1.53) fold
same,"fold change in ABC transp. perm. (ABC transporter permease) expression, geometric mean (95% C.I.)",[7]; substrate 1 M,41.25 (11.65-146.10)^∗ fold
same,"fold change in EF-G expression, geometric mean (95% C.I.)",[7]; substrate 1 M,1.41 (0.70-2.83) fold
same,"fold change in but. -coA transf. (butyrate-acetoacetate CoA-transferase) expression, geometric mean (95% C.I.)",[7]; substrate 1 M,3.95 (0.89-17.60)* fold
same,"fold change in hemin receptor expression, geometric mean (95% C.I.)",[7]; substrate 1 M,18.04 (7.92-41.14)^∗ fold
same,"fold change in hemolysin expression, geometric mean (95% C.I.)",[7]; substrate 1 M,2.50 (1.07-5.83)^∗ fold
same,"fold change in ompA expression, geometric mean (95% C.I.)",[7]; substrate 1 M,1.07 (0.49-2.36) fold
same,"fold change in transposase expression, geometric mean (95% C.I.)",[7]; substrate 1 M,251.47 (75.27-840.20)^∗ fold
same,"fold change in fimA expression, geometric mean (95% C.I.)",[8]; substrate 1 % (w/v),1.47 (0.92-2.34) fold
same,"fold change in kgp expression, geometric mean (95% C.I.)",[8]; substrate 1 % (w/v),1.77 (0.74-4.21) fold
same,"fold change in partC expression, geometric mean (95% C.I.)",[8]; substrate 1 % (w/v),0.54 (0.26-1.12) fold
same,"fold change in rgpA expression, geometric mean (95% C.I.)",[8]; substrate 1 % (w/v),1.42 (1.12-1.80) fold
same,"fold change in fimA expression, geometric mean (95% C.I.)",[8]; substrate 1 M,0.03 (0.00-0.16)* fold
same,"fold change in kgp expression, geometric mean (95% C.I.)",[8]; substrate 1 M,<LOD
same,"fold change in partC expression, geometric mean (95% C.I.)",[8]; substrate 1 M,0.02 (0.00-0.12)^∗ fold
same,"fold change in rgpA expression, geometric mean (95% C.I.)",[8]; substrate 1 M,0.01 (0.00-0.10)^∗ fold
same,"fold change in aae expression, geometric mean (95% C.I.)",[9]; [11],1.34 (0.38-4.68) fold
same,"fold change in apaH expression, geometric mean (95% C.I.)",[9]; [11],0.91 (0.48-1.73) fold
same,"fold change in cdtB expression, geometric mean (95% C.I.)",[9]; [11],0.73 (0.16-3.39) fold
same,"fold change in emaA expression, geometric mean (95% C.I.)",[9]; [11],0.59 (0.13-2.77) fold
same,"fold change in flp expression, geometric mean (95% C.I.)",[9]; [11],0.89 (0.40-1.99) fold
same,"fold change in ltxA expression, geometric mean (95% C.I.)",[9]; [11],0.30 (0.12-0.79) fold
same,"fold change in omp29 expression, geometric mean (95% C.I.)",[9]; [11],0.87 (0.26-2.87) fold
same,"fold change in omp100 expression, geometric mean (95% C.I.)",[9]; [11],0.31 (0.09-1.08)^∗ fold
same,"fold change in orf859 expression, geometric mean (95% C.I.)",[9]; [11],1.66 (0.86-3.20) fold
same,"fold change in pgA expression, geometric mean (95% C.I.)",[9]; [11],0.99 (0.38-2.55) fold
same,"fold change in vapA expression, geometric mean (95% C.I.)",[9]; [11],1.14 (0.40-3.20) fold
same,"fold change in vppA expression, geometric mean (95% C.I.)",[9]; [11],1.08 (0.53-2.18) fold
same,"fold change in aae expression, geometric mean (95% C.I.)",[9]; [12],0.16 (0.05-0.47)^∗ fold
same,"fold change in apaH expression, geometric mean (95% C.I.)",[9]; [12],0.11 (0.02-0.73)^∗ fold
same,"fold change in cdtB expression, geometric mean (95% C.I.)",[9]; [12],0.07 (0.02-0.25)^∗ fold
same,"fold change in emaA expression, geometric mean (95% C.I.)",[9]; [12],0.09 (0.03-0.29)^∗ fold
same,"fold change in flp expression, geometric mean (95% C.I.)",[9]; [12],0.45 (0.17-1.22) fold
same,"fold change in ltxA expression, geometric mean (95% C.I.)",[9]; [12],0.01 (0.01-0.03)^∗ fold
same,"fold change in omp29 expression, geometric mean (95% C.I.)",[9]; [12],1.37 (0.34-5.47) fold
same,"fold change in omp100 expression, geometric mean (95% C.I.)",[9]; [12],0.09 (0.02-0.43)^∗ fold
same,"fold change in orf859 expression, geometric mean (95% C.I.)",[9]; [12],0.02 (0.01-0.05)^∗ fold
same,"fold change in pgA expression, geometric mean (95% C.I.)",[9]; [12],7.26 (2.09-25.17)^∗ fold
same,"fold change in vapA expression, geometric mean (95% C.I.)",[9]; [12],0.50 (0.13-1.94) fold
same,"fold change in vppA expression, geometric mean (95% C.I.)",[9]; [12],0.05 (0.04-2.42)^∗ fold
same,"fold change in pgA expression, geometric mean (95% C.I.)","[9]; substrate 1 M, relative to control = 1, 2^-ΔΔCt, n = 3, listed as D-(+)-raffinose",7.3 fold
same,relative proportion of beneficial or commensal species in biofilm,"[10]; Table 1a, substrate 1 M",95.86 (+/- 1.63)^∗ % (Geq/mL)
same,relative proportion of cariogenic pathogens in biofilm,"[10]; Table 1a, substrate 1 M",1.85 (+/- 0.68) % (Geq/mL)
same,relative proportion of periodontal pathogens in biofilm,"[10]; Table 1a, substrate 1 M",2.29 (+/- 1.40)^∗ % (Geq/mL)
same,relative proportion of beneficial or commensal species in biofilm,[10]; [13],95.86±1.63 % (Geq/mL)
same,relative proportion of cariogenic pathogens in biofilm,[10]; [13],1.85±0.68 % (Geq/mL)
same,relative proportion of periodontal pathogens in biofilm,[10]; [13],2.29±1.40 % (Geq/mL)
same,relative proportion of beneficials/commensals in biofilm,[10]; [14],64.27 (+/- 1.84) % (Geq/mL)
same,relative proportion of cariogenic pathogens in biofilm,[10]; [14],0.27 (+/- 0.09) % (Geq/mL)
same,relative proportion of periodontal pathogens in biofilm,[10]; [14],35.46 (+/- 1.82) % (Geq/mL)
